Measured values: patent US8383582B2, “Inhibitor against forming biofilm comprising κ-casein macropeptide” (Industry Foundation of Chonnam National University, priority 2010, dated 2013)
Where “and” joins values, the source holds several entries; their conditions need not be identical. Identical values can stand only once.

Assays:
[1] = tested on: L. monocytogenes Scott A to HT-29 cell; experiment: Invasion analysis (gentamicin-based) on HT-29 cells; type: cell-based, Listeria monocytogenes; details: CMP 0.4 mg/ml, at the lower MOI, 1.5 h 37° C.
Description: (§1) The human intestinal epithelial cell line HT-29 and the human gastric epithelial cell line AGS were purchased from the Korea Cell Line Bank (KCLB; Seoul, Korea). HT-29 cells have been extensively used as a model system for studying interaction of enteric pathogens with intestinal epithelial cells. All media and fetal bovine serum (FBS) were obtained from Gibco BRL (Life Technologies Inc., Grand Island, N.Y., USA) and JBI (Jeil Biotech services Inc., Seoul, Korea). The HT-29 and AGS cells were grown in RPMI-1640 medium which was supplemented with 10% heat-inactivated FBS. The cells were routinely cultured at 37° C. in 5% CO2 incubator with 6-well or 12-well tissue culture plates for adhesion and invasion assays and in 100-mm-diameter tissue culture plates for RNA isolation.
(§2) The invasion of epithelial cells by L. monocytogenes Scott A was studied using the gentamicin-based assay described by Bunduki et al. (1993) and Gaillard et al. (1987) with modifications. Briefly, the HT-29 and the AGS cells monolayers (10^6 cells) were inoculated with 100 μl of the L. monocytogenes Scott A suspension (10^8 and 10^6 CFU/ml) and incubated for 1.5 h at 37° C. in the absence or presence of 0.4 mg/ml CMP, respectively. The monolayers were washed with PBS, followed by the addition of 250 μl of 1 mg/ml gentamicin (Sigma) and incubation for an additional 1.5 h. […]

[2] = tested on: L. monocytogenes Scott A to HT-29 cell; experiment: Adhesion analysis on HT-29 cells; type: cell-based, Listeria monocytogenes; details: CMP 0.4 mg/ml, at the lower MOI, 30 min 37° C.
Description: as §1
(§3) Prior to the adhesion assay, the HT-29 and the AGS cells monolayers were washed three times in pre-warm PBS (25° C.) to remove any culture medium and non-attached cells. The adhesion assays were performed using L. monocytogenes Scott A according to the method of Hagman et al. (1999) with modifications. Bacteria were grown overnight at 37° C. in TSBYE. […]

[3] = tested on: L. monocytogenes Scott A; experiment: Light microscopy of biofilm on PVC microtiter plates and glass tube; type: cell-based, Listeria monocytogenes; details: MWB 24 h, CMP 0.4 mg/ml
Description: The quantification of biofilm production on plastic microtiter plates and glass tubes was based on a previously described method (Djordjevic et al., 2002). As abiotic surfaces for biofilm formation, 96-well polyvinyl chloride (PVC) microplates (BD Biosciences, San Jose, Calif., USA) and Pyrex glass tube (10 mm by 20 mm) were used. Overnight cultures of 12 strains of L. monocytogenes were twice washed with PBS and inoculated at 10^6 CFU/ml in modified Welshimer's broth (MWB) supplemented different concentrations of CMP (Davisco Foods International, Inc., MN, USA; 0.1, 0.2, and 0.4 mg/ml or 1.0, 2.0, and 4.0 mg/ml). After incubation at 30° C. without agitation for 24 and 48 h, the microplates were twice rinsed thoroughly with double-distilled water, and a 0.1% (w/v) solution of crystal violet (CV) was added to stain the attached cells. […] The absorbance at 595 nm of the solubilized dye was subsequently determined by using an enzyme-linked immunosorbent assay (ELISA) plate reader (Molecular Devices, Sunnyvale, Calif., USA). […]
In addition, biofilm formations on PVC microtiter plates and glass tube by L. monocytogenes incubated in MWB for 24 h in the presence or absence of CMP (0.4 mg/ml) were analyzed using light microscopy and microscopic analyses were illustrated in FIGS. 3 and 4, respectively.

[4] = tested on: L. monocytogenes Scott A; experiment: Nematode Caenorhabditis elegans killing assay; type: in vivo
Description: Caenorhabditis elegans killing assay were performed as initially described by Tenor et al. (2004) with modification. Briefly, L. monocytogenes Scott A was grown in 10 ml of TSBYE culture for overnight. Culture samples (each, 10 μl) were then spread on NGM agar plates (Brenner, 1974; diameter of each, 30 mm). In the present invention, instead of wild-type Bristol N2 worms, we tested killing of C. elegans glp-4 mutant worms. […] (Mylonakis et al., 2002). For each strain, healthy 12 nematodes in L4 stage were transferred from NGM plates seeded with Escherichia coli OP50 to the plates seeded with L. monocytogenes Scott A in the absence or presence of 0.4 mg/ml of CMP and incubated at 25° C. The number of living worms per plate was determined at various time points for 15 days with a light microscopy (Olympus CH30, Tokyo, Japan). […] Each experimental condition was tested in duplicate or triplicate. In analogous experiments, E. coli OP50 was used as controls.

[5] = tested on: L. monocytogenes Scott A to AGS cell; experiment: Adhesion analysis on AGS cells; type: cell-based, Listeria monocytogenes; details: CMP 0.4 mg/ml, at the lower MOI, 30 min 37° C.
Description: as §1, §3

[6] = tested on: L. monocytogenes Scott A to AGS cell; experiment: Invasion analysis (gentamicin-based) on AGS cells; type: cell-based, Listeria monocytogenes; details: CMP 0.4 mg/ml, at the lower MOI, 1.5 h 37° C.
Description: as §1, §2

## κ-casein macropeptide [CMP]
[1]
  invasion of L. monocytogenes Scott A: prevented
[2]
  adhesion of L. monocytogenes Scott A: prevented
[3]
  attached cells (light microscopy): only a small number of L. monocytogenes Scott A cells had attached
[4]; C. elegans glp-4 on lawn of L. monocytogenes Scott A, agar medium with CMP 0.4 mg/ml, 8 days, 25° C., 37.5% without CMP
  worms survived: 54% and 50%
[4]; CMP 0.4 mg/ml, 15 days
  survival of C. elegans from the infection of L. monocytogenes: prolong the survival ability
[5]
  adhesion of L. monocytogenes Scott A: prevented
[6]
  invasion of L. monocytogenes Scott A: prevented
